For 13 compounds, IC50 results are on record in US20210276977A1, “BICYCLIC INHIBITORS OF HISTONE DEACETYLASE” (Alkermes, Inc., priority 2018, published 2021).

One assay has as its target T1, HDAC2 (Homo sapiens, UniProt Q92769).
T1 construct: host or cells: SH-SY5Y cells
Description: HDAC2 Enzymatic Inhibition Assay in SH-SY5Y Cell Lysate with an Exogenous Substrate (HDAC-Glo 2). To be noted: SH-SY5Y cells, five hours incubation, Table 3, class symbols. The format is cell-based. On the procedure:
HDAC2 Enzymatic Inhibition Assay in SH-SY5Y Cell Lysate with an Exogenous Substrate
SH-SY5Y cells (Sigma) were cultured in Eagle's Modified Essential Medium supplemented with 10% fetal bovine serum and pen/strep. Twenty-four hours prior to compound dosing 20 uL of cells were plated in white 384 well plates at a density of 1,500 cells/well. Compounds were serially diluted in neat DMSO and then diluted 1:100 v/v into media without FBS and mixed. Media was removed from the plated cells and the diluted compounds in serum free media (1% v/v final DMSO) were added and incubated at 37° C. for five hours. Ten uL of HDAC-Glo 2 reagent with 0.1% Triton X-100 was then added, the plate was mixed and allowed to develop at room temperature for 100 minutes. Plates were then read with a Spectramax LMax luminometer employing a 0.4 s integration time. Dose response curves were constructed with normalized data where CI-994 at 100 uM was defined as 100% inhibition and DMSO alone as 0% inhibition.
(§1) In the table, “A” indicates a IC50 value of less than 0.5 μM; “B” a IC50 value from 0.5 μM to 1.0 μM; “C” a IC50 value of greater than 1.0 μM and less than or equal to 2.0 μM; and “D” indicates an IC50 value of greater than 2.0 μM. NT=Not Tested.

The target in a further assay is T2, Full length Human HDAC2 (Homo sapiens, UniProt Q92769).
T2 construct: Full length Human HDAC2; FLAG (C); host or cells: baculovirus expression system
T2 sequence (Q92769 whole entry): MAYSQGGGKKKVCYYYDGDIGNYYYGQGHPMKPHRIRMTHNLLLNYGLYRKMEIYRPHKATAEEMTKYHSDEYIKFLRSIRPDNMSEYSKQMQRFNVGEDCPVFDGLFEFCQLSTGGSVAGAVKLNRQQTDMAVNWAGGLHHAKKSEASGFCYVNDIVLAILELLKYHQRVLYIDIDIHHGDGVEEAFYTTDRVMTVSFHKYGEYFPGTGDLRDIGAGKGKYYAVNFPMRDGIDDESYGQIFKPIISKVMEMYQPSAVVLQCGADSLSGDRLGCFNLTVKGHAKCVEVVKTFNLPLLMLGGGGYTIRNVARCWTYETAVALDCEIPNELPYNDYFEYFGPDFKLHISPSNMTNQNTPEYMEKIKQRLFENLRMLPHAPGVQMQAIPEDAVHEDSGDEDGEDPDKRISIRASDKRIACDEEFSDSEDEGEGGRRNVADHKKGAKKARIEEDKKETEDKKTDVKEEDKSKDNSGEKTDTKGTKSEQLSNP
Put plainly: HDAC2 enzymatic assay (deacetylation of FAM-labeled peptide substrate, microfluidic electrophoresis). To be noted: recombinant enzymatic assay. Type of assay: biochemical. On the procedure: (§2) HDAC2 and HDAC1 Enzymatic Assay (HDAC2 and HDAC1 IC50 Data)
(§3) The following describes an assay protocol for measuring the deacetylation of a peptide substrate by HDAC2 or HDAC1.
(§4) HD AC protein composition and respective substrate peptides are summarized below.
(§5) HD AC reactions are assembled in 384 well plates (Greiner) in a total volume of 20 μL as following:
(§6) HDAC proteins are pre-diluted in the assay buffer comprising: 100 mM HEPES, pH 7.5, 0.1% BSA, 0.01% Triton X-100, 25 mM KCl and dispensed into 384 well plate (10 uL per well).
(§7) Test compounds are serially pre-diluted in DMSO and added to the protein samples by acoustic dispensing (Labcyte Echo). Concentration of DMSO is equalized to 1% in all samples.
(§8) Control samples (0%-inhibition in the absence of inhibitor, DMSO only) and 100%-inhibition (in the absence of enzyme) are assembled in replicates of four and used to calculate the %-inhibition in the presence of compounds.
(§9) At this step compounds can be pre-incubated with enzyme if desired.
(§10) The reactions are initiated by addition of 10 uL of the FAM-labeled substrate peptide pre-diluted in the same assay buffer. Final concentration of substrate peptide is 1 uM (HDAC1-2).
(§11) The reactions are allowed to proceed at room temperature. Following incubation, the reactions are quenched by addition of 50 μL of termination buffer (100 mM HEPES, pH7.5, 0.01% Triton X-100, 0.1% SDS). Terminated plates are analyzed on a microfluidic electrophoresis instrument (Caliper LabChip® 3000, Caliper Life Sciences/Perkin Elmer) which enables electrophoretic separation of de-acetylated product from acetylated substrate. A change in the relative intensity of the peptide substrate and product is the parameter measured. Activity in each test sample is determined as the product to sum ratio (PSR): P/(S+P), where P is the peak height of the product, and S is the peak height of the substrate. Percent inhibition (Pinh) is determined using the following equation: Pinh=(PSR0% inh−PSRcompound)/(PSR0% inh−PSR100% inh)*100, in which: PSRcompound is the product/sum ratio in the presence of compound, PSR0% inh is the product/sum ratio in the absence of compound and the PSR100% inh is the product/sum ratio in the absence of the enzyme. To determine IC50 of compounds (50%-inhibition) the %-inh data (Pinh versus compound concentration) are fit by a 4 parameter sigmoid dose-response model using XLfit software (IDBS).
as §1

A further assay addresses T3, Full length Human HDAC1 (Homo sapiens, UniProt Q13547).
T3 construct: Full length Human HDAC1; His (C); FLAG (C); host or cells: baculovirus expression system
Put plainly: HDAC1 enzymatic assay (deacetylation of FAM-labeled peptide substrate, microfluidic electrophoresis). The format is biochemical. As to conditions: recombinant enzymatic assay. On the procedure:
as §2, §3, §4, §5, §6, §7, §8, §9, §10, §11, §1

The structures appear in SMILES notation.

T3 sequence (Q13547 whole entry): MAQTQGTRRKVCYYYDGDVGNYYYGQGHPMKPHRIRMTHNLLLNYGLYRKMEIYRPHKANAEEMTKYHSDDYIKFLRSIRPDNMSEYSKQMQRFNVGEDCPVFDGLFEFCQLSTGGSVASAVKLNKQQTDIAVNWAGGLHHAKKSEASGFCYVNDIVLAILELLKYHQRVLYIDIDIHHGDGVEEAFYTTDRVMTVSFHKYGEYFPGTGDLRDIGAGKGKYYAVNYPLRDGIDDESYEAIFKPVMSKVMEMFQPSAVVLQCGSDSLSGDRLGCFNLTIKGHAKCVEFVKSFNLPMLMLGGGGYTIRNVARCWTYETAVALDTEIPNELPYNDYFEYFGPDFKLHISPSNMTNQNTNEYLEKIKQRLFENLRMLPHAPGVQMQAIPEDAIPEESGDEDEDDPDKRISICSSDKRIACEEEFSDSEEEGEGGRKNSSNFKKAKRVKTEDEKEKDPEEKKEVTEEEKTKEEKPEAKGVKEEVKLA
T1 sequence (Q92769 whole entry): as the sequence (Q92769 whole entry) above

Regarding `Nc1ccc(-c2ccc(F)cc2)nc1NC(=O)N1CC(Cn2cccn2)C1` [Compound 73], the IC50 on HDAC2 is 1 to 2 µM; on Full length Human HDAC2 (Table 2, class symbols), 1 to 2 µM; at Full length Human HDAC1 (Table 2, class symbols), 0.5 to 1 µM.
Regarding `Nc1ccc(-c2ccc(F)cc2)nc1NC(=O)N1CC(Cc2ccccn2)C1` [Compound 74], the half-maximal inhibitory concentration (IC50) against HDAC2 was 1 to 2 µM; at Full length Human HDAC2 (Table 2, class symbols), 0.5 to 1 µM; at Full length Human HDAC1 (Table 2, class symbols) it was less than 0.5 µM.
The matching figures for `Nc1ccc(-c2ccc(F)cc2)nc1NC(=O)N1CC(Cc2ncc(C(F)F)cn2)C1` [Compound 76]: 1 to 2 µM, 0.5 to 1 µM and less than 0.5 µM.
The matching figures for `Nc1ccc(-c2ccc(F)cc2)nc1NC(=O)N1CC(Cc2ccc(F)cn2)C1` [Compound 77]: greater than 2 µM, 1 to 2 µM and less than 0.5 µM.
On the same counts, the results for `Nc1ccc(-c2ccc(F)cc2)nc1NC(=O)N1CC(Cc2cnc(C(F)(F)F)nc2)C1` [Compound 78] are greater than 2 µM, greater than 2 µM and greater than 2 µM.
In the case of `Cc1cccc(CC2CN(C(=O)Nc3nc(-c4ccc(F)cc4)ccc3N)C2)n1` [Compound 79], the IC50 on HDAC2 is greater than 2 µM; at Full length Human HDAC2 (Table 2, class symbols) it was 1 to 2 µM; on Full length Human HDAC1 (Table 2, class symbols) it was 0.5 to 1 µM.
Regarding `Cc1ncc(CC2CN(C(=O)Nc3nc(-c4ccc(F)cc4)ccc3N)C2)cn1` [Compound 80], the IC50 against HDAC2 lay in the range of 1 to 2 µM; on Full length Human HDAC2 (Table 2, class symbols) it was 1 to 2 µM; at Full length Human HDAC1 (Table 2, class symbols), 0.5 to 1 µM.
Turning to `CC(F)(F)c1cnc(CC2CN(C(=O)Nc3nc(-c4ccc(F)cc4)ccc3N)C2)nc1` [Compound 81], the IC50 was greater than 2 µM against HDAC2; 0.5 to 1 µM on Full length Human HDAC2 (Table 2, class symbols); less than 0.5 µM on Full length Human HDAC1 (Table 2, class symbols).
On the same counts, the results for `COCc1cnc(CC2CN(C(=O)Nc3nc(-c4ccc(F)cc4)ccc3N)C2)nc1` [Compound 82] are 1 to 2 µM, 0.5 to 1 µM and less than 0.5 µM.
On the same counts, the results for `COCc1ccc(CC2CN(C(=O)Nc3nc(-c4ccc(F)cc4)ccc3N)C2)nc1` [Compound 83] are 1 to 2 µM, 0.5 to 1 µM and less than 0.5 µM.
`Nc1ccc(-c2ccc(F)cc2)nc1NC(=O)N1CC(Cc2ncc(C(F)(F)F)cn2)C1` [Compound 84]: the IC50 at HDAC2 is greater than 2 µM; at Full length Human HDAC2 (Table 2, numeric value), 1.19 µM; on Full length Human HDAC1 (Table 2, numeric value) it was 0.346 µM.
For the compound `Cn1ccnc1CC1(F)CN(C(=O)Nc2nc(-c3ccc(F)cc3)ccc2N)C1` [Compound 86], the IC50 was 1 to 2 µM on HDAC2; greater than 2 µM on Full length Human HDAC2 (Table 2, class symbols); 1 to 2 µM at Full length Human HDAC1 (Table 2, class symbols).
Regarding `COC1(Cc2nccn2C)CN(C(=O)Nc2nc(-c3ccc(F)cc3)ccc2N)C1` [Compound 87], the IC50 is 1 to 2 µM against HDAC2; greater than 2 µM at Full length Human HDAC2 (Table 2, class symbols); greater than 2 µM on Full length Human HDAC1 (Table 2, class symbols).

As a reminder, the IC50 is the concentration needed to halve the response being measured.
